Test results: patent US20110237592A1, “SUBSTITUTED AMIDO PHENOXYBENZAMIDES” (BAYER SCHERING PHARMA AKTIENGESELLSCHAFT, priority 2008, published 2011)

Tests used:
MEK1/2 = settings: background statement, ref. [17]; cited from earlier work
colon cancer = settings: oral treatment, mouse models, ref. [18]; cited from earlier work
MEK1 = target: T1, MEK1 (Homo sapiens, UniProt Q02750); assay: MEK1 activation kinase assay (Cot1, HTRF); assay type: biochemical; settings: inhibition of Cot1-mediated activation of GST-MEK1, HTRF
T1 construct: purchased Millipore 14-420
T1 sequence (Q02750 whole entry): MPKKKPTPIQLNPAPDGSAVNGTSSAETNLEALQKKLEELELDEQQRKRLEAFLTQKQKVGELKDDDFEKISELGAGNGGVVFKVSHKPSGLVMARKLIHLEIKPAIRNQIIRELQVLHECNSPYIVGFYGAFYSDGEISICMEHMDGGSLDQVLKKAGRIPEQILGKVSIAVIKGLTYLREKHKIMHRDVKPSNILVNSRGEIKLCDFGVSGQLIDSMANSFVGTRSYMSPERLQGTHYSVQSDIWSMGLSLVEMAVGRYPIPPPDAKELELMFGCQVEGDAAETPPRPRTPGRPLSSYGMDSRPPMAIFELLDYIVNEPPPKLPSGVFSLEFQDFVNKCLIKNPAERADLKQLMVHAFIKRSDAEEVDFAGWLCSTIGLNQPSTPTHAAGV
From the text: The kinase Cot1 activates MEK1 by phosphorylating its activation loop. The inhibitory activity of compounds of the present invention on this activation of MEK1 was quantified employing the HTRF assay described in the following paragraphs.
N-terminally His6-tagged recombinant kinase domain of the human Cot1 (amino acids 30-397, purchased from Millipore, cat. no 14-703) expressed in insect cells (SF21) and purified by Ni-NTA affinity chromatography was used as kinase. As substrate for the kinase reaction the unactive C-terminally His6-tagged GST-MEK1 fusion protein (Millipore cat. no 14-420) was used.
For the assay 50 nl of a 100 fold concentrated solution of the test compound in DMSO was pipetted into a black low volume 384 well microtiter plate (Greiner Bio-One, Frickenhausen, Germany), 3 μl of a solution of 24 nM GST-MEK1 and 166.7 μM adenosine-tri-phosphate (ATP) in assay buffer [50 mM Tris/HCl pH 7.5, 10 mM MgCl2, 2 mM dithiothreitol, 0.01% (v/v) Igepal CA 630 (Sigma), 5 mM β-phospho-glycerol] were added and the mixture was incubated for 10 min at 22° C. to allow pre-binding of the test compounds to the GST-MEK1 before the start of the kinase reaction. Then the kinase reaction was started by the addition of 2 μl of a solution of Cot1 in assay buffer and the resulting mixture was incubated for a reaction time of 20 min at 22° C. […]
The resulting mixture was incubated 2 h at 22° C. to allow the binding of the phosphorylated GST-MEK1 to the anti-GST-XL665 and the Eu-cryptate labelled anti-phospho-MEK 1/2 antibody. Subsequently the amount of Ser217/Ser221-phosphorylated substrate was evaluated by measurement of the resonance energy transfer from the Eu-Cryptate-labelled anti-phospho-MEK antibody to the anti-GST-XL665. Therefore, the fluorescence emissions at 620 nm and 665 nm after excitation at 350 nm was measured in a HTRF reader, e.g. a Rubystar (BMG Labtechnologies, Offenburg, Germany) or a Viewlux (Perkin-Elmer). […]

A375 cells = assay: A375 proliferation crystal violet (CV) assay; assay type: cell-based; settings: Homo sapiens, A-375, 96 h, crystal violet staining, 4 days
Procedure: Alternatively, the cell proliferation was measured by crystal violet (CV) staining: Assay 7
Cultivated human A375 cells were plated out in a density of 1500 cells/measurement point in 200 μl of growth medium (DMEM/HAMS F12 (Biochrom; FG4815) with 10% FBS and 2 mM Glutamine) in a 96-well multititer plate. After 24 hours, the cells from a plate (zero plate) were stained with crystal violet (see below), while the medium in the other plates was replaced by fresh culture medium (200 μl) to which the test substances had been added in various concentrations (0 μM, and in the range 0.3 nM-30 μM; the final concentration of the solvent dimethyl sulphoxide was 0.5%). The cells were incubated in the presence of the test substances for 4 days. The cell proliferation was determined by staining the cells with crystal violet: the cells were fixed by adding 20 μl/measurement point of an 11% glutaraldehyde solution at room temperature for 15 min. After the fixed cells had been washed three times with water, the plates were dried at room temperature. The cells were stained by adding 100 μl/measurement point of a 0.1% crystal violet solution (pH adjusted to pH 3 by adding acetic acid). After the stained cells had been washed three times with water, the plates were dried at room temperature. The dye was dissolved by adding 100 μl/measurement point of a 10% acetic acid solution, and the extinction was determined by photometry at a wavelength of 595 nm. The percentage change in cell growth was calculated by normalizing the measurements to the extinctions of the zero point plate (=0%) and the extinction of the untreated (0 μM) cells (=100%). The IC50 values were determined by means of a 4-parameter fit using the company's own software.

[1] = currently preferred example compounds

Row | SMILES | IC50 (A375 cells; [1]) | also measured
1 | O=C(NOCC1CC1)c1ccc(F)c(F)c1Nc1ccc(I)cc1Cl [CI-1040] |  | IC50 (MEK1/2): low nanomolar range; colon cancer growth in vivo (colon cancer): inhibit colon cancer growth in vivo
2 | CC(C)(O)C(=O)Nc1cccc(Oc2cc(F)cc(Nc3ccc(I)cc3F)c2C(N)=O)c1 [Example 1.1, 4-Fluoro-2-(2-fluoro-4-iodo-phenylamino)-6-[3-(2-hydroxy-2-methylpropionylamino)-phenoxy]-benzamide] | < 0.1 µM | IC50 (MEK1): < 0.1 µM; IC50 (A375 cells): < 1 µM
3 | NC(=O)c1c(Nc2ccc(I)cc2F)cc(F)cc1Oc1cccc(NC(=O)CO)c1 [Example 3.1, 4-Fluoro-2-(2-fluoro-4-iodo-phenylamino)-6-[3-(2-hydroxy-acetylamino)-phenoxy]-benzamide] | < 0.1 µM | 
4 | COCC(=O)Nc1cccc(Oc2cc(F)cc(Nc3ccc(I)cc3F)c2C(N)=O)c1 [Example 3.2, 4-Fluoro-2-(2-fluoro-4-iodo-phenylamino)-6-[3-(2-methoxy-acetylamino)-phenoxy]-benzamide] | < 0.1 µM | 
5 | CSCC(=O)Nc1cccc(Oc2cc(F)cc(Nc3ccc(I)cc3F)c2C(N)=O)c1 [Example 3.3, 4-Fluoro-2-(2-fluoro-4-iodo-phenylamino)-6-[3-(2-methylsulfanyl-acetylamino)-phenoxy]-benzamide] | < 0.1 µM | 
6 | NC(=O)c1c(Nc2ccc(I)cc2F)cc(F)cc1Oc1cccc(NC(=O)C2CCOCC2)c1 [Example 3.5, Tetrahydro-pyran-4-carboxylic acid {3-[2-carbamoyl-5-fluoro-3-(2-fluoro-4-iodo-phenylamino)-phenoxy]-phenyl}-amide] | < 0.1 µM | 
7 | CC(O)C(=O)Nc1cccc(Oc2cc(F)cc(Nc3ccc(I)cc3F)c2C(N)=O)c1 (stereo not drawn) [Example 3.6, 4-Fluoro-2-(2-fluoro-4-iodo-phenylamino)-6-[3-(2-hydroxy-propionylamino)-phenoxy]-benzamide] | < 0.1 µM | 
8 | NC(=O)c1c(Nc2ccc(I)cc2F)cc(F)cc1Oc1cccc(NC(=O)CN2CCOCC2)c1 [Example 3.7, 4-Fluoro-2-(2-fluoro-4-iodo-phenylamino)-6-[3-(2-morpholin-4-yl-acetylamino)-phenoxy]-benzamide] | < 0.1 µM | 
9 | CN1CCC(C(=O)Nc2cccc(Oc3cc(F)cc(Nc4ccc(I)cc4F)c3C(N)=O)c2)CC1 [Example 3.17, 1-Methyl-piperidine-4-carboxylic acid {3-[2-carbamoyl-5-fluoro-3-(2-fluoro-4-iodo-phenylamino)-phenoxy]-phenyl}-amide] |  | IC50 (MEK1): < 0.1 µM
10 | NC(=O)c1c(Nc2ccc(I)cc2F)cc(F)cc1Oc1ccc2oc(=O)[nH]c2c1 [Example 4.1, 4-Fluoro-2-(2-fluoro-4-iodo-phenylamino)-6-(2-oxo-2,3-dihydro-benzooxazol-5-yloxy)-benzamide] | < 0.1 µM | IC50 (MEK1): < 0.1 µM
11 | NC(=O)c1c(Nc2ccc(I)cc2F)cc(F)cc1Oc1cccc(NC(=O)C(F)(F)F)c1 [Example 5.1, 4-Fluoro-2-(2-fluoro-4-iodo-phenylamino)-6-[3-(2,2,2-trifluoro-acetylamino)-phenoxy]-benzamide] |  | IC50 (A375 cells): < 1 µM
